Test: Physicochemical parameters of Luc-mRNA-LNP (particle size, PDI, zeta potential, encapsulation efficiency)
Conditions: lipid formulation of Table 1
Experimental: The lipid compound of the present disclosure, neutral lipid (phospholipid), and PEG lipid were dissolved in an ethanol solution according to a specific molar ratio (detailed formulation shown in Table 1). The mRNA was dissolved in a citric acid buffer (pH 4.0) to a final concentration of 135 ng/µL. The LNP mixture and the mRNA dilution were mixed at a volume ratio of 1:3, and mRNA-LNP complexes were prepared using a microfluidic nano-preparation system with a flow rate ratio of 1:3 between the LNP mixture and the mRNA dilution, that is, the LNP volume:the mRNA volume was 1:3. After dilution with a 10× phosphate buffer solution (pH 7.4), ultrafiltration concentration was performed, followed by about 500-fold dilution with solution replacement. An experimental sample was obtained after sterile filtration. Samples were taken and analyzed for average particle size, PDI, and Zeta potential. Table 1: Three-component LNP lipid formulation based on cholesterol cationic lipid compound
Example 13: Preparation, Characterization, and In Vitro Cell Transfection Activity Evaluation of Luc-mRNA-LNP Using luciferase gene Luc-mRNA and referring to the preparation method provided in Example 12 and the lipid formulation provided in Table 1, Luc-mRNA-LNP was constructed, whose encapsulation efficiency, average particle size, PDI, and zeta potential data are shown in Table 2. […]

In the case of CCCCCCCCCCCOC(=O)CCCCCN(CCO)CCCCCCCC(=O)OC(CCCCCCCC)CCCCCCCC [SM-102], the “Encapsulation efficiency (%)” value is reported as “below 15%”.
